What was measured:
[1] = lucigenin-reinforced xanthine oxidase test (radical binding, chemiluminescence); format: biochemical; conditions: cell-free system
Experimental: The property of binding reducing radicals, is measured in cell-free systems with a lucigenin-reinforced xanthine oxidase test on the basis of the conversion of hypoxanthine to uric acid. The O2-radicals produced in this process can be detected with lucigenin by relative chemiluminescence measurement. By the radical scavengers present, the O2-radicals are neutralised and the chemiluminescence yield reduced. […] An amount of 1 mg of the hyaluronic acid fragment according to the invention with a relative molar mass of 100 to 160 kD has a radical-binding activity which corresponds to that of 200 to 400 μg allopurinol. Hyaluronic acid with a relative molar mass of 1,800 kD has, on the other hand, a negligible radical-binding activity (Pierce, L. A., W. O. Tarnow-Mordi and I. A, Cree: Antibiotics Effects on Phagocyte Chemilunieszence in Vitro. In J. Clin. Lab. Res.- (1995) 25, 93-98).

HaCaT keratinocytes = experiment: toxicity test: DNA synthesis performance by BrdU incorporation; format: cell-based, human; conditions: 24-hour incubation
Experimental: In order to characterise the influence of hyaluronic acid fragments of differing relative molar mass on the proliferation behaviour of human keratinocytes (HaCaT keratinocytes—made available by Prof. Dr. Norbert E. Fusenig: Deutsches Krebsforschungsinstitut Heidelberg, Germany), the DNA synthesis performance is determined with the aid of BrdU incorporation (Cell Proliferation ELISA, BrdU calorimetric—Boehringer Mannheim, Mannheim, Germany) into the DNA after a 24-hour period of incubation. For the following hyaluronic acid fragments examined, no toxic reaction of the cells could be observed.

- radical-binding activity [1]: negligible
Substance: hyaluronic acid
- toxic reaction of the cells / tolerance (DNA synthesis performance, BrdU incorporation) (HaCaT keratinocytes): very good tolerance
